Test results reported in patent US20150190470A1, “COMBINATION THERAPY” (TETRALOGIC PHARMACEUTICALS CORPORATION, priority 2012, published 2015).

What was measured:
[1] = tested on: Mouse renal carcinoma (RenCa) cells; test: Viability of RenCa cells (MTT) with birinapant plus TNFα or mouse GM-CSF; format: cell-based; conditions: in combination with birinapant, TNFα 0.000001 to 100 ng/mL or mouse GM-CSF 0.001 to 10 ng/mL, 24 h
Description: Mouse renal carcinoma (RenCa) cells were seeded into 96-well plates at a density of 10,000 cells/well and allowed to adhere overnight. On the next day, birinapant alone or in combination with varying concentrations of TNFα (R&D systems) (0.000001 to 100 ng/mL) or mouse GM-CSF (R&D Systems) (0.001 to 10 ng/mL) were added. Following a 24 h incubation, viability was assessed by MTT assay.

[2] = tested on: human peripheral blood mononuclear cells (PBMCs); test: Ex-vivo treatment of PBMCs with GM-CSF; cytokine concentration in culture supernatants by ELISA; format: cell-based
Description: Peripheral blood mononuclear cells (PBMC) were isolated from two healthy male donors using BD Vacutainer® CPT cell preparation tubes (Becton, Dickinson and Company, Franklin Lakes N.J. 07417, REF 362753) according to manufacturer's protocol. After isolation, mononuclear cell layer was removed from CPT tube and transferred to a sterile 15 mL centrifuge tube. Cells were washed by adding 10 mL of Dulbecco's Modified Eagle Medium (DMEM) containing 10% fetal bovine serum (FBS) to cells, tube was inverted several times to mix and cells were pelleted by centrifugation at 1500 RPM for 10 minutes. Following centrifugation, media was removed and cells were resuspended in DMEM containing 10% FBS to a concentration of 1×10^6 cells/mL. Cells were next seeded into 6-well dishes at 1×10^6 cells/mL in 2 mL/well. Following 2 hr incubation at 37° C./5% CO2, human recombinant GM-CSF (R&D Systems, Minneapolis Minn. 55413, Catalog # #215-GM) was added to cells at indicated concentrations. Following overnight incubation at 37° C./5% CO2, media was collected into sterile 15 mL centrifuge tubes and cells were removed by centrifugation at 1500 RPM for 10 minutes. Media was transferred to new, sterile tubes and frozen at −80° C. until use.
TNFα concentration in culture supernatants was determined by ELISA (BD OptEIA TNF kit II) according to manufacturer's recommendations. Absorbance values were analyzed using GraphPad Prism linear regression analysis and reported as pg/mL TNFα.
In a first extension of the preceding study, substantially the same experiment was carried out with PBMCs from two additional donors, Donors 3 and 4. In this first extension study, cells were treated with GM-CSF, GM-CSF+1.0 uM birinapant.
In a second extension study, substantially the same experiment was subsequently carried out with new PBMC culture supernatants from Donors 1, 3, and 4.

[3] = human, in vivo
Source text: In general, Compound 15 can be administered once, twice or three times per week for one to four weeks (or longer). In some situations a treatment interval may be followed by a rest interval. A suitable rest interval includes but is not limited to one week. […] It should be understood that the “on” weeks are consecutive weeks, i.e., two consecutive weeks on drug, three consecutive weeks on drug, and four consecutive weeks (or more) on drug.

[4] = tested on: MDA-MB-231 cells (human breast cancer), Smac mimetic resistant variant; test: Viability of MDA-MB-231 cells (MTT) with PBMC culture supernatants and Compound 15; format: cell-based; conditions: 1 μM Compound 15 with supernatant of 1 ng/mL GM-CSF-treated Donor 1 PBMC culture, 24 hr, FIG. 3(a)
Description: MDA-MB-231 cells (human breast cancer) were seeded into 96-well plates at a density of 10,000 cells/well and allowed to adhere overnight. Next day, culture supernatants from untreated Donor 1 PBMC culture or 1 ng/mL GM-CSF-treated Donor 1 PBMC culture was added to MDA-MB-231 cells in the presence or absence of 1 μM Compound 15, 1 μM Compound 15 plus TNFα neutralizing antibody (R&D Systems #MAB610, 10 μg/mL), 1 μM Compound 15 plus TRAIL neutralizing antibodies (R&D Systems #374-DR and 631-T2, 100 ng/ml each) or 1 μM Compound 15 plus both TNFα and TRAIL neutralizing antibodies. All antibodies were tested in the absence of Compound 15 as control. Viability of MDA-MB-231 cells was measured following 24 hr incubation at 37° C./5% CO2 by MTT (3-(4,5-dimethylthiazol-2-yl)-2,5-diphenyltetrazolium bromide) assay substantially as described in Hansen, M. B., Nielsen, S. E., and Berg, K. (1989) J. Immunol. Methods 119, 203-210.
In an extension study, substantially the same experiment was carried out with culture supernatants from two additional donors, Donors 3 and 4, excluding treatment with the combination of anti-TNFα and anti-TRAIL antibodies.

RenCa cells = test: Survival of BALB/c mice inoculated with RenCa cells; format: in vivo; conditions: female BALB/c mice, RenCa cells on each flank; qdX5 each week for 4 weeks; birinapant 15 mg/Kg IP, mGM-CSF 10 mg IP
Description: 40 female BALB/c mice (10 per treatment group) were inoculated with 1×10^5 RenCa cells on each flank. The mice were subsequently treated qdX5 each week for 4 consecutive weeks with birinapant, mGM-CSF, birinapant and mGM-CSF, or a vehicle control. Each dose of birinapant was 15 mg/Kg IP and each dose of mGM-CSF was 10 mg IP.

TNFα [reference compound]
RenCa cell viability [1]: decreased in direct relation to the concentration of TNFα

GM-CSF: Granulocyte macrophage colony-stimulating factor; human recombinant GM-CSF (R&D Systems) in Example 1
expression and secretion of TNFα by PBMCs ([2]; Donors 1 and 2, overnight incubation with GM-CSF, ELISA, FIGS. 1(a),(b)): increased expression and secretion of TNFα
expression and secretion of TNFα by PBMCs ([2]; first extension study, Donors 3 and 4, FIGS. 1(c),(d)): increased expression and secretion of TNFα
expression and secretion of TNFα by PBMCs ([2]; second extension study, new PBMC culture supernatants from Donors 1, 3 and 4, FIGS. 2(a)-(c)): increased expression and secretion of TNFα
RenCa cell viability [1]: unaffected

CC[C@H](NC(=O)[C@H](C)NC)C(=O)N1C[C@@H](O)C[C@H]1Cc1c(-c2[nH]c3cc(F)ccc3c2C[C@@H]2C[C@H](O)CN2C(=O)[C@H](CC)NC(=O)[C@H](C)NC)[nH]c2cc(F)ccc12 [Compound 15, N-{1S-[2R-(6,6′-Difluoro-3′-{4S-hydroxy-1-[2S-(2S-methylamino-propionylamino)-butyryl]-pyrrolidin-2R-ylmethyl}-1H,1′H-[2,2′]biindolyl-3-ylmethyl)-4S-hydroxy-pyrrolidine-1-carbonyl]-propyl}-2S-methylamino-propionamide]
half-life in the patient [3]: long half-life
viability of MDA-MB-231 cells / induction of apoptosis [4]: sensitization of MDA-MB-231 Smac mimetic resistant variant to Compound 15
time to which 50% of mice survived (RenCa cells): approximately 40 days

B1: mGM-CSF: mouse GM-CSF (R&D Systems) (protein, UniProt P01587 18-141, looked up)
Granulocyte-macrophage …: APTRSPITVTRPWKHVEAIKEALNLLDDMPVTLNEEVEVVSNEFSFKKLTCVQTRLKIFEQGLRGNFTKLKGALNMTASYYQTYCPPTPETDCETQVTTYADFIDSLKTFLTDIPFECKKPGQK
time to which 50% of mice survived (RenCa cells): approximately 30 days
